Results as given in a melting point compilation (Tetko et al.; mined from patent text by program, amines drawn as free bases though some values may be those of a salt).

SMILES	melting point [°C]
CS(=O)(=O)Oc1ccc(O)cc1	82 to 84
Cc1cccc(Cl)c1-n1nc(C(C)C)c(C(N)=O)c1N	72 to 74
CC(C)(C)OC(=O)N1CCC(CNC(=O)[C@@H]2CCCN2C(=O)OCc2ccccc2)CC1	50
O=C(OCc1ccc(C(F)(F)F)cc1)N1CCC2(CC1)Cn1cc([N+](=O)[O-])nc1O2	189 to 190
C=CCc1cccnc1C(=O)OC	116 to 119
CSc1nc(I)ncc1Br	72 to 76
O=C(Cc1ccccc1Cl)Nc1ccc(C(=O)N2Cc3cccn3Cc3ccccc32)cc1	99 to 103
CCOC(=O)/C(=C\Nc1ccc(OC)cc1)c1ccc(OC)cc1	90 to 91
CC(C)n1nc(-c2cnc(N)nc2-c2cccnc2)ccc1=O	204
CCOc1ccc2nc3[nH]cnc(=O)c3cc2c1OC	330 to 331
CNc1nc(-c2ccccc2)c(-c2nc(N)nc(Nc3cccc([N+](=O)[O-])c3)n2)s1	277
CCCC1(Br)Cc2c3c(c(C)c(C)c2C1=O)OC(C(=O)O)C3 (stereo not drawn)	78
CNC(=S)NCCCCC(NC(=O)C(Cc1cccc2ccccc12)Cc1cccc2ccccc12)C(=O)NC(CC(C)C)C(O)C(=O)OC(C)C (stereo not drawn)	93 to 95
COc1cc(C2=C(c3cn(CCCNC(=O)C(N)CC(C)C)c4ccccc34)C(=O)NC2=O)cc(OC)c1OC (stereo not drawn)	172 to 173
CC(C)(Sc1nnnn1-c1ccccc1)c1ccc([N+](=O)[O-])cc1	122
Clc1nccnc1Oc1ccc2c(c1)OCO2	87 to 88
FC(F)(F)c1ccc(-c2ccc(Cl)nc2)cc1	98 to 101
COc1cn(-c2cccc(C(F)(F)F)c2)nc(-c2ccnn2-c2ccccc2)c1=O	139 to 141
Fc1ncccc1-c1cscc1Br	48 to 50
COc1cc(NC2=C(Cl)C(=O)c3ccccc3C2=O)ccc1S(=O)(=O)Nc1ccc(C)cc1	186 to 189
Cn1nc(N2c3cc(F)ccc3CC2C(=O)N2CCCCCC2)ccc1=O (stereo not drawn)	204 to 207

SMILES	melting point [°C]
CNC(=NCCSCc1ccc2nc[nH]c2c1)NC#N	191
CCC(C)(C)N1CCN(C(=O)Nc2ccc3[nH]c(C(=O)N4CCN(c5ncccc5NC(C)C)CC4)cc3c2)CC1	240 to 242
Nc1nc(NC2CC2)c2sc(=O)n(C3OC(CO)C(O)C3O)c2n1 (stereo not drawn)	> 100
CC(C)(C)NC(=O)[C@@H]1C[C@H](Cl)CN1C(=O)[C@@H](O)[C@H](Cc1ccccc1)N(Cc1ccccc1)Cc1ccccc1	64 to 67
Cc1cc(Cn2cc(C(F)(F)C(F)(F)F)c(C(F)(F)C(F)(F)F)n2)ccc1NC(=O)c1cccc(Br)c1C(=O)N[C@@H](C)CS(C)(=O)=O	134 to 136
COc1cc(N)c([N+](=O)[O-])cc1O	171
NC(=O)c1cnn2c1N(C(=S)NC(=O)c1ccccc1)CC=C2c1cccc(C(F)(F)F)c1	210 to 212
CCOC(=O)CCN(CC(N)=O)C(=O)Cn1cc(C)c(=O)[nH]c1=O	207 to 208
CC(=O)Nc1ccc2ccccc2c1-c1c(P(c2ccccc2)c2ccccc2)ccc2ccccc12	105
CCOC(=O)NNc1n[nH]c2cc(Cl)ccc12	210 to 211
CC1(C)Oc2ccc(C#N)cc2[C@@H](N2CC(OCc3ccccc3)=CC2=O)[C@@H]1O (relative stereo)	248
Cc1nnc(N2N=C(c3cc(C)c([N+](=O)[O-])c(C)c3)c3cc4c(cc3C[C@H]2C)OCO4)o1	132 to 133
CCOC(=O)c1cc2cc(OC(F)(F)F)cc(N(C)S(=O)(=O)c3cccs3)c2[nH]1	149 to 150
O=[N+]([O-])c1c(NCC(O)CO)cccc1NCC(O)CO (stereo not drawn)	138
Cc1cnc(-c2ccc(C(F)(F)F)cc2)n1C	130
CC1CNc2c(ccc(NC3=NCCN3)c2Br)N1 (single isomer, unassigned; (+))	203 to 205
NS(=O)(=O)Oc1c(Cl)cccc1Cl	108 to 110
CC1(C)CC(OC(=O)NNC(=O)OC2CC(C)(C)N(OC3CCCCC3)C(C)(C)C2)CC(C)(C)N1OC1CCCCC1	150 to 152
N#CN1c2ccccc2CC(=O)c2ccccc21	153 to 154
CCOCCOCCOCCOc1ccc(OCCCCCCCCCCCCOc2ccccc2)cc1N(CC(=O)O)CC(=O)O	58 to 61
CN(C(=O)N1CCN2C(=O)OC(c3ccccc3)(c3ccccc3)C2C1)c1ccccc1 (stereo not drawn)	146 to 147

Other lines, results leading:

melting point [°C]	SMILES
171	O=C(O)Cc1cc(C(=O)c2cccc(F)c2)ccc1O
250	CC(=O)Nc1c(S(N)(=O)=O)cc(C(=O)O)c(Nc2ccccc2)c1NCc1ccco1
125 to 127	CCCCN=C(CS(C)=O)c1cccc(OC)c1O (stereo not drawn)
120 to 121	Cn1nc(CNC(=O)Nc2ccccc2)nc1NCCCOc1cccc(CN2CCCCC2)c1
208 to 211	CCc1cn2c(=O)c(C#N)cnc2c2ccccc12
234 to 235	O=C(O)CCc1c(C(=O)O)[nH]c2cc(Br)ccc12
165 to 169	CC(CO)Oc1cc(Oc2ccc(S(C)(=O)=O)cc2)cc2cc(C3=NCC(CCO)S3)[nH]c12 (stereo not drawn)
89 to 91	Cn1c(CO)cc2cccc(F)c21
195 to 196	COc1ccc(CSC(=S)N2Cc3[nH]c4ccccc4c3CC2C(=O)O)cc1 (stereo not drawn)
178 to 180	O=C(NCc1cc[nH]n1)c1ccnc(N2CCN(Cc3ccc(F)cc3)C2=O)c1
103 to 105	CC(=O)c1c(N(C)C)c(-c2ccccc2)n(Cc2ccccc2Cl)c1C
70 to 72	COc1cccc(C(=O)N(C(=O)OCI)N(C(=O)c2cc(C)cc(C)c2)C(C)(C)C)c1C
143 to 147	CCCCOc1ccc(Cc2cnc(N)nc2N)cc1OC
96 to 98	CC(C)(C)OC(=O)Nc1cc(OCc2ccccc2)cc(OCc2ccccc2)c1
177	Cc1cc(C)c2nc(NC3CCN(CCO)CC3)n(Cc3nc(C)ccc3O)c2c1
> 230	NS(=O)(=O)c1ccc(NN=C2C(=O)Nc3ccc(C(=O)NCCO)cc32)cc1
92	Cc1cc(CCCc2ccc(CO)c(CO)c2)ccc1O
268 to 269	Cc1ccc(O)c(-c2nc(-c3cc(C)ccc3O)n(-c3ccc(C(=O)O)cc3)n2)c1
233	Cc1cc(-c2ccc(Cl)cc2)nc(-n2cnc(-c3cccc(S(C)(=O)=O)c3)c2)n1
240 to 242	CC(=O)c1c(C)nc(C)n1-c1cc(C)c2[nH]c(=O)ccc2c1
193	COc1cc(C(=O)c2cccnc2)cc([N+](=O)[O-])c1O
230 to 233	O=C(O)Cc1c(C(=O)c2ccc(-c3nccs3)cc2)[nH]c2cc(Cl)ccc12
92 to 94	COC(=O)c1cccc(Oc2nn(Cc3ccccc3)c3ccccc23)n1
87 to 90	NN(CCCCO)c1nc2ccccc2o1
154 to 155	Cc1oc(-c2ccccc2)nc1COc1ccc(Cn2cc(/C=C/C(=O)O)c(-c3ccccc3)c2)cc1
119 to 121	CCCn1cc(Cc2ccc(C(=O)NS(=O)(=O)c3ccccc3C)cc2OC)c2cc(C=CCC(=O)N(C)C)ccc21
